The source of these data is PMC5000617, “Antiproliferative and Pro-Apoptotic Effect of Novel Nitro-Substituted Hydroxynaphthanilides on Human Cancer Cell Lines” (International Journal of Molecular Sciences, 2016).

In series [1] the test system is MCF-7 cells. Description: Erythrosin B dye exclusion viability test, MCF-7. Type of series: cell-based. Particulars: MCF-7, 24 h, vs control. The procedure: (§1) Subsequently, for the comparison of the antiproliferative and cytotoxic effects we assessed the cell viability after 24 h treatment with compounds 1–6 in both tumour cell lines using the dye exclusion test.
(§2) THP-1 human monocytic leukemia cell line, MCF-7 human breast adenocarcinoma cells and 3T3-L1 mouse embryonic fibroblast were purchased from the European Collection of Cell Cultures (ECACC, Salisbury, UK). Cells were routinely tested for the absence of mycoplasma (Hoechst 33258 staining method). THP-1 cells were maintained in RPMI 1640 culture medium containing 2 mM L-glutamine; MCF-7 and 3T3-L1 cells were cultured in DMEM medium. All of the culture media were supplemented with 10% heat-inactivated FBS and antibiotics (100 U/mL penicillin and 100 μg/mL streptomycin). Cells were maintained at 37 °C in a humidified atmosphere containing 5% CO2.
(§3) Cell proliferation was evaluated using Cell Proliferation Reagent WST-1 (2-(4-iodophenyl)-3-(4-nitrophenyl)-5-(2,4-disulfophenyl)-2H-tetrazolium) (Roche Diagnostics, Mannheim, Germany) according to the manufacturer´s instructions. THP-1 (5 × 10^4 cells/100 μL culture medium per well), MCF-7 cells (1 × 10^4 cells/100 μL per well), and 3T3-L1 (2.5 × 10^3 cells/100 μL per well) were cultured in 96-well plates in triplicate. The measurement was performed using Synergy 2 Multi-Mode Microplate Reader (BioTek, Winooski, VT, USA) after 24 h incubation of cells with tested compounds dissolved in DMSO and subsequently in RPMI 1640 to final concentration ranging 0.5–20 μM in the assays. Cell viability was assessed by dye exclusion test. THP-1 (2 × 10^5 cells/mL per well) and MCF-7 cells (8 × 10^4 cells/mL per well) were incubated in 24-well plates with the indicated concentrations of compounds for 24 h. The number of viable cells was determined using hemocytometer after their staining with a solution of erythrosin B (0.1% erythrosin B (w/v) in PBS). The assays were conducted in triplicate. The IC50 and LC50 values were calculated from fitted concentration-response curves using GraphPad Prism 5.00 software (GraphPad Software, San Diego, CA, USA).

Series [2] is described as follows: Erythrosin B dye exclusion viability test, MCF-7. Type of series: cell-based. To be noted: human, MCF-7 cells; erythrosin B exclusion test, 24 h, mean ± SD; read-out: MCF-7 LC50. The protocol: as §1, §2, §3
Series [3] concerns THP-1 cells. Description: Annexin V-FITC/PI apoptosis assay by flow cytometry, THP-1. Type of series: cell-based, human. The protocol:
(§4) Staining of cells by Annexin V-FITC conjugate reflects the externalization of phosphatidylserine on the outer surface of the cell membrane as one of the early indicators of apoptosis.
(§5) Early and late stages of apoptosis were detected using Annexin V-FITC Kit—Apoptosis Detection Kit faccording to the manufacturer´s instructions. […] At each time-point of incubation (12, 18, and 24 h) the cells were washed with ice-cold PBS prior to being resuspended at a concentration of 5 × 10^6 cells/mL in a total volume of 100 μL of 1× binding buffer. Annexin V-FITC solution (final concentration 0.25 μg/mL) and PI (final concentration 12.5 μg/mL) were added to each sample; the cell suspension was kept on ice and incubated for 15 min in the dark. After that, the analysis was carried out by flow cytometry. The data were evaluated using Kaluza Flow Cytometry Analysis 1.2. Per sample, a total number of 2 × 10^4 cells were analysed.
(In flow cytometry, cells or beads pass a laser one at a time.)

Experiment in series [4]: as above
Type of series: cell-based, human. To be noted: human, THP-1 cells, representative dot plot, read-out: quadrant I: viable cells. The protocol:
as §4, §5

In series [5] the test system is THP-1 cells. The series is described as follows: Erythrosin B dye exclusion viability test, THP-1. Type of series: cell-based. The protocol:
as §1, §2, §3

Series [6] can be described thus: Erythrosin B dye exclusion viability test, THP-1. Type of series: cell-based. To be noted: human, THP-1 cells; erythrosin B exclusion test, 24 h, mean ± SD; read-out: THP-1 LC50. The protocol: as §1, §2, §3
Series [7] has as its system cyclin E1. Description: Western blot of cyclin E1 in THP-1 cells. Type of series: cell-based, human. To be noted: THP-1, 24 h. The procedure: Additionally, the cell cycle analysis allows determining the presence of a subdiploid cell population as a characteristic marker of cells with fractional DNA content. A significant increase (p < 0.001) of the sub-G1 peak was found only after the treatment with 5 µM of compound 2 in THP-1 cells, where an approximately eight-fold increase was observed compared to the drug-free control (Figure 4).
(§6) For Western blotting, cells were washed with PBS and lysed in lysis buffer (100 mM Tris-HCl, pH = 6.8; 20% glycerol; 1% SDS) containing protease and phosphatase inhibitor cocktails. Protein concentration was measured using Roti®-Quant universal (Carl Roth, Karsruhe, Germany) according to the manufacturer’s instructions. Cell lysates were supplemented with bromophenol blue (final concentration 0.01% (w/v)) and β-mercaptoethanol (final concentration 1% (v/v)) prior to being heated for 5 min at 95 °C. Equal amounts of protein (10 μg) were loaded into a 12% polyacrylamide gel, separated by SDS-polyacrylamide gel electrophoresis and subsequently electrotransferred onto nitrocellulose membranes. Reversible Ponceau S. staining was performed to assess equal sample loading. Then, the membranes were blocked with 5% non-fat dry milk in TBST (10 mM Tris-HCl pH = 7.5, 150 mM NaCl, 0.1% (v/v) Tween-20) and appropriate primary and secondary antibodies were used for immunodetection. The proteins were visualized by ECL Plus reagent according to the manufacturer’s instructions. The intensity of bands was semi-quantitatively analysed using the ImageJ software (National Institute of Mental Health, Bethesda, MD, USA).

In series [8] the test system is 3T3-L1 cells. Description: WST-1 cell proliferation assay, 3T3-L1 non-tumour cells. Type of series: cell-based, mouse. The protocol:
as §2, §3
Background: Tetrazolium dyes change colour on reduction, which living cells bring about.

The subject of series [9] is caspase 8. Description: Western blot of caspase 8 in THP-1 cells. Format: cell-based, human. To be noted: THP-1, 24 h. The procedure: Most of the apoptotic signalling pathways are controlled by caspases that belong to a group of cysteine proteases. To assess whether compound 2 affects these signalling cascades and which pathway is activated (intrinsic or extrinsic), the activities of caspase 3, caspase 9, and caspase 8 were evaluated using Western blot analysis.
as §6, with “Then, the membranes were blocked with 5% non-fat dry milk in TBST (10 mM Tris-HCl pH = 7.5, 150 mM NaCl, 0.1% (v/v) Tween-20) and appropriate primary and secondary antibodies were used for immunodetection. The proteins were visualized by ECL Plus reagent according to the manufacturer’s instructions.” left out
A general note: In western blotting, separated proteins are transferred to a membrane and probed.

Some results are limits rather than exact numbers.

As to `O=C(Nc1cccc([N+](=O)[O-])c1)c1cc2ccccc2cc1O` [Compound 2, 3-hydroxy-N-(3-nitrophenyl)naphthalene-2-carboxamide], in [1], the “effect on cell viability” value is recorded as “Neither compound 2 nor 6 reduced cell viability under 50%”. Moreover, the CC50 at 24 h in series [2] was > 20 µM; in series [6], 7.91 ± 0.24 µM. Further, the “double-stained (late apoptotic/secondary necrotic) cells” value in [3] (THP-1, 10 µM, 12 h, mean) turned out to be 22.48%; in series [3] (THP-1, 10 µM, 24 h, mean), 41.88%. In series [3] (THP-1, 10 µM, 12 h, mean, control 2.41%), the “proportion of early apoptotic cells” value came out at 9.37%. Further, the “pro-apoptotic effect” value in series [3] (THP-1, 2.5, 5, 10 µM, 12, 18, 24 h) is listed as “induced a dose-dependent increase of the percentage of early apoptotic as well as late apoptotic/secondary necrotic”. In series [4] (THP-1, 2.5 μM, 12 h), the viability at 12 h, 2.5 µM worked out at 92.1%. For the same compound, in series [4] (THP-1, 2.5 μM, 18 h), the viability at 18 h, 2.5 µM was 90.2%. Further, in [4] (THP-1, 2.5 μM, 24 h), the viability at 24 h, 2.5 µM came to 87.8%. In addition, the viability at 12 h, 5 µM in series [4] (THP-1, 5 μM, 12 h) stood at 85.8%. Further, in [4] (THP-1, 5 μM, 18 h), the viability at 18 h, 5 µM is 76.7%. The viability at 24 h, 5 µM in [4] (THP-1, 5 μM, 24 h) came out at 75.7%. The viability at 12 h, 10 µM in [4] (THP-1, 10 μM, 12 h) came to 64.9%. The viability at 18 h, 10 µM in [4] (THP-1, 10 μM, 18 h) stood at 57.2%. Besides, the viability at 24 h, 10 µM in series [4] (THP-1, 10 μM, 24 h) is 44.6%. For the same compound, the “LC50 compared to IC50” value in [5] was 2–3 fold. For the same compound, in series [7], the “expression of cyclin E1” value is reported as “dose-dependent decrease in expression of cyclin E1”. Besides, the “levels of cyclin E1 low molecular weight (LMW E1) isoform” value in series [7] is recorded as “more pronounced reduction of LMW E1 isoform levels”. In [8] (3T3-L1, 24 h), the “effect on cell proliferation” value is recorded as “did not decrease cell growth at any of concentrations used”. Besides, the IC50 in [8] (Mus musculus, 3T3-L1, WST-1, 24 h, non-tumour cells, mean ± SD) is > 20 µM. Besides, the “level of active caspase 8” value in series [9] was “level of active caspase 8 was not altered”.

Usually IC50 stands for the concentration that gives 50% inhibition.
